Data taken from patent publication US9918963B2, “Therapeutic agent for disease based on inhibitory effect of macrophage migration inhibitory factor” (TOYAMA CHEMICAL CO., LTD., priority 2013, dated 2018).

Experiments:
MIF = molecular target: T1, MIF (Homo sapiens, UniProt P14174); assay: Inhibition of MIF tautomerase activity (L-dopachrome methyl ester, absorbance at 475 nm); format: biochemical; details: 30 μmol/L test substance, 10 to 50 nmol/L MIF, pH 6.2, control = 100%; read-out: Inhibition Rate of Tautomerase Reaction
T1 construct: (catalogue number not given); host or cells: E. coli BL21 Star (DE3)
T1 sequence (P14174 2-115 limits assumed): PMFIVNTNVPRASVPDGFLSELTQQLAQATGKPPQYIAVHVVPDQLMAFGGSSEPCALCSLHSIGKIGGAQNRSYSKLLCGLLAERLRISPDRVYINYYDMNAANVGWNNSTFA
Protocol: The inhibitory effect of test substances against tautomerase activity of MIF was evaluated by referring to a method of Healy et al. (Cancer Epidemiology Biomarkers and Prevention, 2011, vol. 20, pp. 1516-1523).
In this method, tautomeric reaction from L-3,4-dihydroxyphenylalanine methyl ester (L-dopachrome methyl ester, colored) to 5,6-hydroxyindole-2-carboxylic acid methyl ester (no color) is measured as a change in absorbance at 475 nm.
As an enzyme source, recombinant MIF manufactured by Abcam Plc. or MIF produced and purified by referring to a method of Lubetsky et al. (The Journal of Biological Chemistry, 2002, vol. 277, pp. 24976-24982) was used. A purification method for MIF is described below.
The pET15b vector (Merck) into which the full length gene sequence of MIF had been inserted was transfected E. coli BL21 Star (DE3) strain (Life Technologies Corporation). […] The E. coli were resuspended in buffer (pH 7.5) containing 20 mmol/L Tris (Wako Pure Chemical Industries, Ltd.), 20 mmol/L sodium chloride (Wako Pure Chemical Industries, Ltd.) and 1 mmol/L dithiothreitol (Wako Pure Chemical Industries, Ltd.), and the resultant was subjected to ultrasonic lysis and centrifugation at 15000 rpm for 10 minutes. The thus obtained supernatant was filtered using a 0.20 μm filter, and was allowed to pass through HiTrap Q HP and HiTrap SP HP columns (GE Healthcare Japan Corporation), so as to separate flow-through fractions each of 5 mL. Each of 10 μL of the separated fractions was subjected to the electrophoresis using 5 to 20% polyacrylamide gel (Wako Pure Chemical Industries, Ltd.), and all proteins were stained with Coomassie brilliant blue reagent (Bio-Rad Laboratories, Inc.). On the basis of results thus obtained, a fraction containing a large amount of MIF and containing least amount of other proteins was selected as purified MIF. The concentration of MIF protein was measured by using BCA protein assay reagent (Thermo Fisher Scientific K. K.).
Inhibitory effect of each test substance against MIF tautomerase activity was measured as follows.
A final concentration of 10 to 50 nmol/L of MIF and a final concentration of 30 μmol/L of each test substance or 0.5% dimethyl sulfoxide (Wako Pure Chemical Industries, Ltd.) as a control were added to buffer (pH 6.2) containing 50 mmol/L Bis-Tris (Dojindo Laboratories) and 1 mmol/L EDTA (Dojindo Laboratories), and reaction was performed at room temperature for 15 minutes to give a reaction solution 1.
On the other hand, 1/20 volume of 12 mmol/L L-3,4-dihydroxyphenylalanine methyl ester (Sigma Aldrich) and 1/20 volume of 24 mmol/L sodium periodate (Wako Pure Chemical Industries, Ltd.) were added to buffer having the same composition as that used for obtaining the reaction solution 1, to give a reaction solution 2.
Next, the reaction solution 1 and the reaction solution 2 were mixed, and the temporal change of absorbance at 475 nm of the obtained mixture was immediately measured.
The difference of the absorbencies between the at about 1 minute after the measurement start and at about 5 minutes after was obtained. Assuming that the absorbance change of the control is 100%, an inhibiting rate of the tautomerase reaction in presence of=each test substance was calculated.

[1] = system: chronic relapsing EAE model of mouse; format: in vivo
Protocol: Compound A was selected as a test substance, and salazosulfapyridine (hereinafter referred to as SASP) was selected as a comparative control agent. Compound A was administered at a dose of 30 mg/kg (Compound A group). SASP was administered at a dose of 300 mg/kg (SASP group). In control group and normal group (no induction treatment group), 0.5% methyl cellulose aqueous solution used as vehicle of the administration liquid was administered.
The chronic relapsing EAE was induced in SJL/J female mice by immunization with partial PLP peptide. Briefly, an emulsion was prepared by mixing equivalent volumes of phosphate buffer saline containing 1 mg/mL of the peptide corresponding to residues 139-151 of the PLP and Freund's […] adjuvant containing 4 mg/mL of killed M. Tuberculosis H37Ra. The emulsion was intradermically injected (50 μg of PLP per mouse) into four positions on the back for immunization, and additionally, on the day of the immunization and two days after, pertussis toxin was intraperitoneally injected in each amount of 150 ng per mouse, twice in total. The vehicle, the test substance or the reference article was orally administered continuously for 44 days once daily from the day of the immunization.
In the present experiment, paralysis was developed to reach a peak on the 14th to 16th day after the immunization, and the symptom remitted once, but relapsed to reach a peak on the 38th day.
The symptom was evaluated in accordance with a report of Weaver et al. (FASEB Journal, 2005, vol. 19, p. 1668). Briefly, paralysis of all of the four limbs and the tail was evaluated by scoring in 4 ranks of scores of 0 to 3 and in 3 ranks of scores of 0 to 2, respectively, and the sum of the scores was determined as EAE score (the maximum score 14).
Incidence rates (the number of mice having developed the disease/the number of used mice) and the average of EAE score of each group were measured at the period of initial onset (on the 15th day after the immunization) and at the period of relapse (on the 38th day after the immunization).

[2] = system: chronic constriction nerve injury model rat; assay: Chronic constriction nerve injury model rat, mechanical allodynia by von Frey test; format: in vivo; details: von Frey test, left hind paw
Protocol: This test was performed by referring to a method of Bennett et al. (Pain, 1988, vol. 33, pp. 87-107). Compound A was used as a test substance, and celecoxib, one of NSAIDs, was used as a reference substance. The compound A was administered at a dose of 30 mg/kg (Compound A group). The celecoxib was administered at a dose of 30 mg/kg (celecoxib group). To a control group, a 0.5% methyl cellulose aqueous solution used as a vehicle was administered. Under anesthetic with Somnopentyl (manufactured by Kyoritsu Seiyaku Corporation, about 52 mg/kg, intraperitoneal administration), nerve constriction operation was performed on the left sciatic nerves of Sprague-Dawley male rats (7 weeks old). Briefly, a left femoral region of each rat was dissected, the sciatic nerve was detached from tissues around, and the nerve was loosely constricted with a 4-0 silk suture (manufactured by Eticon Inc., surgical silk) for having narrow parts in four positions at intervals of about 1 mm. The muscular layer and the skin were respectively sutured, and the operation region was disinfected. The vehicle, the test substance or the reference substance was orally administered once a day continuously for 14 days from the 16th day after the operation. From the start of the administration, pain sense (mechanical allodynia) of the footpad of left hind paw was evaluated by von Frey test. […] The evaluation of the pain sense was expressed as an average of pain threshold values.

CS(=O)(=O)Nc1cc2occc(=O)c2cc1Oc1ccccc1 [Compound D, N-(4-oxo-6-phenoxy-4H-1-benzopyran-7-yl)methanesulfonamide]
inhibition at 30 µM (MIF): 50 to 75%

CC(=O)Nc1coc2cc(NS(C)(=O)=O)c(Oc3ccccc3)cc2c1=O [Compound C, N-[7-[(methylsulfonyl)amino]-4-oxo-6-phenoxy-4H-1-benzopyran-3-yl]acetamide]
inhibition at 30 µM (MIF): 50 to 75%

CS(=O)(=O)Nc1cc2oc(-c3ccccc3)cc(=O)c2cc1Oc1ccccc1 [Compound I, N-(4-oxo-6-phenoxy-2-phenyl-4H-1-benzopyran-7-yl)methanesulfonamide]
inhibition at 30 µM (MIF): ≥ 75%

O=C(O)c1cc(/N=N/c2ccc(S(=O)(=O)Nc3ccccn3)cc2)ccc1O [SASP, salazosulfapyridine]
Animals died, by period of initial onset ([1]; 15th day after immunization, 8 animals, 300 mg/kg orally once daily): (1 animal
EAE score, period of initial onset ([1]; 15th day after immunization, average, maximum score 14, oral once daily (Compound A 30 mg/kg, SASP 300 mg/kg)): 5.5
Incidence rate, period of initial onset ([1]; 15th day after immunization, mice having developed the disease/mice used, oral once daily from immunization (Compound A 30 mg/kg, SASP 300 mg/kg)): 7/7
Animals died, by period of relapse ([1]; 38th day after immunization, 8 animals, 300 mg/kg orally once daily): (2 animals
EAE score, period of relapse ([1]; 38th day after immunization, average, maximum score 14, oral once daily (Compound A 30 mg/kg, SASP 300 mg/kg)): 2.0
Incidence rate, period of relapse ([1]; 38th day after immunization, mice having developed the disease/mice used, oral once daily (Compound A 30 mg/kg, SASP 300 mg/kg)): 6/6
Effect on incidence rate / EAE score, paralysis of chronic relapsing EAE ([1]; oral once daily for 44 days from immunization (Compound A 30 mg/kg, SASP 300 mg/kg)): neither the incidence rate nor the EAE score was lowered

CCS(=O)(=O)Nc1cc2occ(NC=O)c(=O)c2cc1Oc1ccccc1 [Compound H, N-[7-[(ethylsulfonyl)amino]-4-oxo-6-phenoxy-4H-1-benzopyran-3-yl]formamide]
inhibition at 30 µM (MIF): ≥ 75%

CC(=O)Nc1cc(=O)c2cc(Oc3ccccc3)c(NS(C)(=O)=O)cc2o1 [Compound F, N-[7-[(methylsulfonyl)amino]-4-oxo-6-phenoxy-4H-1-benzopyran-2-yl]acetamide]
inhibition at 30 µM (MIF): ≥ 75%

CS(=O)(=O)Nc1cc2oc(C(N)=O)cc(=O)c2cc1Oc1ccccc1 [Compound E, 7-[(methylsulfonyl)amino]-4-oxo-6-phenoxy-4H-1-benzopyran-2-carboxamide]
inhibition at 30 µM (MIF): ≥ 75%

Cc1ccc(-c2cc(C(F)(F)F)nn2-c2ccc(S(N)(=O)=O)cc2)cc1 [Celecoxib, celecoxib, reference compound]
Average of pain thresholds, 30th day after operation ([2]; 30 mg/kg orally once a day for 14 days from the 16th day after operation): 3.1 g
Average of pain thresholds, 15th day after operation ([2]; day before start of administration, 30 mg/kg groups): 2.5 g

CS(=O)(=O)Nc1cc2occ(C(N)=O)c(=O)c2cc1Oc1ccccc1 [Compound G, 7-[(methylsulfonyl)amino]-4-oxo-6-phenoxy-4H-1-benzopyran-3-carboxamide]
inhibition at 30 µM (MIF): 50 to 75%

CS(=O)(=O)Nc1cc2occ(N)c(=O)c2cc1Oc1ccccc1 [Compound B, N-(3-amino-4-oxo-6-phenoxy-4H-1-benzopyran-7-yl)methanesulfonamide]
inhibition at 30 µM (MIF): 50 to 75%
